# Measurements taken from ChEMBL document CHEMBL1201862, “PubChem BioAssay data set” (2004).
#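 Assay format: 96-well plates, 48-hour exposure. GI50 = concentration required for 50% inhibition of growth.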 The source made the active and inactive calls. Rule as the data show it: active = GI50 up to about 1.1 µM and inactive = higher.
# Tests used:
# Assay in all cases: NCI-60 cell line screen, 48 h
# [1] = system: 786-0
# [2] = system: A498
# [3] = system: A549
# [4] = system: ACHN
# [5] = system: CAKI-1
# [6] = system: CCRF-CEM
# [7] = system: COLO 205
# [8] = system: DLD-1
# [9] = system: DMS-114
# [10] = system: DMS-273
# [11] = system: EKVX
# [12] = system: HCC 2998
# [13] = system: HCT-116
# [14] = system: HL-60
# [15] = system: HOP-62
# [16] = system: HT-29
# [17] = system: IGROV-1
# [18] = system: K562
# [19] = system: KM-20L2
# [20] = system: KM12
# [21] = system: LOX IMVI
# [22] = system: LXFL 529
# [23] = system: M14
# [24] = system: M19-MEL
# [25] = system: MOLT-4
# [26] = system: Malme-3M
# [27] = system: NCI-H226
# [28] = system: NCI-H23
# [29] = system: NCI-H460
# [30] = system: NCI-H522
# [31] = system: OVCAR-3
# [32] = system: OVCAR-5
# [33] = system: OVCAR-8
# [34] = system: RPMI-8226
# [35] = system: SF-268
# [36] = system: SF-295
# [37] = system: SF-539
# [38] = system: SK-MEL-5
# [39] = system: SK-OV-3
# [40] = system: SN12C
# [41] = system: SNB-75
# [42] = system: SNB-78
# [43] = system: SR
# [44] = system: SW-620
# [45] = system: TK-10
# [46] = system: U-251
# [47] = system: UACC-257
# [48] = system: UACC-62
# [49] = system: XF498
# [50] = system: BT-549
# [51] = system: DU-145
# [52] = system: HCT-15
# [53] = system: HOP-92
# [54] = system: Hs-578T
# [55] = system: MDA-MB-231
# [56] = system: MDA-MB-435
# [57] = system: MDA-N
# [58] = system: NCI/ADR-RES
# [59] = system: PC-3
# [60] = system: RXF 393
# [61] = system: SK-MEL-28
# [62] = system: SK-MEL-2
# [63] = system: SNB-19
# [64] = system: T47D
# [65] = system: UO-31
# [66] = system: OVCAR-4
structure (smiles),measurement,setting,value
COc1c(C)c2c(c(C)c1Cl)Oc1c(C=O)c(O)c(Cl)c(C)c1C(=O)O2,GI50,[1],31 µM (inactive)
same,GI50,[2],24.2 µM (inactive)
same,GI50,[3],33.7 µM (inactive)
same,GI50,[4],22.4 µM (inactive)
same,GI50,[5],40.7 µM (inactive)
same,GI50,[6],20.3 µM (inactive)
same,GI50,[7],22.8 µM (inactive)
same,GI50,[8],27.7 µM (inactive)
same,GI50,[9],23.3 µM (inactive)
same,GI50,[10],22.4 µM (inactive)
same,GI50,[11],17.9 µM (inactive)
same,GI50,[12],28.1 µM (inactive)
same,GI50,[13],23 µM (inactive)
same,GI50,[14],22.3 µM (inactive)
same,GI50,[15],24.3 µM (inactive)
same,GI50,[16],36.9 µM (inactive)
same,GI50,[17],31.6 µM (inactive)
same,GI50,[18],26.8 µM (inactive)
same,GI50,[19],30.5 µM (inactive)
same,GI50,[20],31.8 µM (inactive)
same,GI50,[21],25.9 µM (inactive)
same,GI50,[22],28.1 µM (inactive)
same,GI50,[23],20.9 µM (inactive)
same,GI50,[24],31.3 µM (inactive)
same,GI50,[25],20.6 µM (inactive)
same,GI50,[26],23.2 µM (inactive)
same,GI50,[27],28.7 µM (inactive)
same,GI50,[28],21.1 µM (inactive)
same,GI50,[29],32.3 µM (inactive)
same,GI50,[30],22.7 µM (inactive)
same,GI50,[31],11.7 µM (inactive)
same,GI50,[32],28.1 µM (inactive)
same,GI50,[33],36.7 µM (inactive)
same,GI50,[34],32.6 µM (inactive)
same,GI50,[35],27.8 µM (inactive)
same,GI50,[36],30.9 µM (inactive)
same,GI50,[37],18.5 µM (inactive)
same,GI50,[38],95.7 µM (inactive)
same,GI50,[39],33.2 µM (inactive)
same,GI50,[40],33.3 µM (inactive)
same,GI50,[41],23.4 µM (inactive)
same,GI50,[42],18.2 µM (inactive)
same,GI50,[43],27.5 µM (inactive)
same,GI50,[44],43.8 µM (inactive)
same,GI50,[45],31.8 µM (inactive)
same,GI50,[46],20.3 µM (inactive)
same,GI50,[47],31.4 µM (inactive)
same,GI50,[48],21.6 µM (inactive)
same,GI50,[49],2.66 µM (inactive)
COC(=O)C12OCC34C(CC5C(C)=CC(=O)C(O)C5(C)C3C(O)C1O)OC(=O)C(OC(=O)CC(C)C)C24 (configuration not stated),GI50,[1],0.0468 µM (active)
same,GI50,[2],0.002 µM (active)
same,GI50,[3],0.0013 µM (active)
same,GI50,[4],< 0.0371 µM (active)
same,GI50,[50],0.000463 µM (active)
same,GI50,[5],0.005 µM (active)
same,GI50,[6],0.000486 µM (active)
same,GI50,[7],0.00237 µM (active)
same,GI50,[8],0.00149 µM (active)
same,GI50,[9],0.000659 µM (active)
same,GI50,[10],0.000401 µM (active)
same,GI50,[51],0.00083 µM (active)
same,GI50,[11],0.00313 µM (active)
same,GI50,[12],0.000803 µM (active)
same,GI50,[52],0.00288 µM
same,GI50,[14],0.000208 µM (active)
same,GI50,[15],0.00222 µM (active)
same,GI50,[53],0.00324 µM (active)
same,GI50,[16],0.000973 µM (active)
same,GI50,[54],0.000164 µM (active)
same,GI50,[17],0.000564 µM (active)
same,GI50,[19],0.00288 µM (active)
same,GI50,[20],0.00166 µM (active)
same,GI50,[21],0.000548 µM (active)
same,GI50,[22],< 0.0255 µM (active)
same,GI50,[23],< 0.0381 µM (active)
same,GI50,[24],0.00134 µM (active)
same,GI50,[55],0.00369 µM (active)
same,GI50,[56],0.00103 µM (active)
same,GI50,[57],0.00142 µM (active)
same,GI50,[26],0.00126 µM (active)
same,GI50,[27],0.00109 µM (active)
same,GI50,[28],0.000778 µM (active)
same,GI50,[29],0.00046 µM (active)
same,GI50,[30],0.000352 µM (active)
same,GI50,[58],0.00289 µM (active)
same,GI50,[31],0.000906 µM (active)
same,GI50,[32],0.00325 µM (active)
same,GI50,[33],0.00206 µM (active)
same,GI50,[59],0.000871 µM (active)
same,GI50,[34],0.000371 µM (active)
same,GI50,[60],0.00168 µM (active)
same,GI50,[35],0.00217 µM (active)
same,GI50,[36],0.00158 µM (active)
same,GI50,[37],0.00064 µM (active)
same,GI50,[61],0.00134 µM (active)
same,GI50,[62],0.00281 µM (active)
same,GI50,[38],0.000624 µM (active)
same,GI50,[39],0.0031 µM (active)
same,GI50,[40],0.00366 µM (active)
same,GI50,[63],0.0014 µM (active)
same,GI50,[41],0.00216 µM (active)
same,GI50,[42],0.00346 µM (active)
same,GI50,[43],0.000327 µM (active)
same,GI50,[44],0.002 µM (active)
same,GI50,[64],0.00146 µM (active)
same,GI50,[45],0.0444 µM (active)
same,GI50,[46],0.00116 µM (active)
same,GI50,[47],0.00284 µM (active)
same,GI50,[48],0.00223 µM (active)
same,GI50,[65],0.00738 µM (active)
same,GI50,[49],0.00116 µM (active)
CCP(C)(C)=O,GI50,[1],> 100 µM (inactive)
same,GI50,[2],> 100 µM (inactive)
same,GI50,[3],> 100 µM (inactive)
same,GI50,[4],> 100 µM (inactive)
same,GI50,[5],> 100 µM (inactive)
same,GI50,[6],> 100 µM (inactive)
same,GI50,[7],> 100 µM (inactive)
same,GI50,[8],> 100 µM (inactive)
same,GI50,[9],> 100 µM (inactive)
same,GI50,[10],> 100 µM (inactive)
same,GI50,[11],> 100 µM (inactive)
same,GI50,[12],> 100 µM (inactive)
same,GI50,[52],> 100 µM
same,GI50,[15],> 100 µM (inactive)
same,GI50,[16],> 100 µM (inactive)
same,GI50,[17],> 100 µM (inactive)
same,GI50,[18],> 100 µM (inactive)
same,GI50,[19],> 100 µM (inactive)
same,GI50,[20],> 100 µM (inactive)
same,GI50,[21],> 100 µM (inactive)
same,GI50,[22],> 100 µM (inactive)
same,GI50,[23],> 100 µM (inactive)
same,GI50,[24],> 100 µM (inactive)
same,GI50,[25],> 100 µM (inactive)
same,GI50,[26],> 100 µM (inactive)
same,GI50,[28],> 100 µM (inactive)
same,GI50,[29],> 100 µM (inactive)
same,GI50,[31],> 100 µM (inactive)
same,GI50,[66],> 100 µM (inactive)
same,GI50,[32],> 100 µM (inactive)
same,GI50,[33],> 100 µM (inactive)
same,GI50,[34],> 100 µM (inactive)
same,GI50,[60],> 100 µM (inactive)
same,GI50,[35],> 100 µM (inactive)
same,GI50,[36],> 100 µM (inactive)
same,GI50,[37],> 100 µM (inactive)
same,GI50,[61],> 100 µM (inactive)
same,GI50,[62],> 100 µM (inactive)
same,GI50,[38],> 100 µM (inactive)
same,GI50,[39],> 100 µM (inactive)
same,GI50,[40],> 100 µM (inactive)
same,GI50,[63],> 100 µM (inactive)
same,GI50,[41],> 100 µM (inactive)
same,GI50,[42],> 100 µM (inactive)
same,GI50,[44],> 100 µM (inactive)
same,GI50,[45],> 100 µM (inactive)
same,GI50,[46],> 100 µM (inactive)
same,GI50,[47],> 100 µM (inactive)
same,GI50,[48],> 100 µM (inactive)
same,GI50,[65],> 10 µM (inactive)
same,GI50,[49],> 100 µM (inactive)
